In US10526316B2, “Quinoxaline and pyridopyrazine derivatives as PI3Kβ inhibitors” (Janssen Pharmaceutica NV, priority 2015, dated 2020) one finds IC50 and Kd data, which are given here for 18 molecules.

Like-named read-outs stand apart in the source and are kept apart here.

Test [1] concerns Akt phosphorylated at Ser473 in PC-3 cells. Briefly: Cellular assay: phosphorylation of Akt at Ser473 in PC-3 cells (MSD ELISA). The test is classed as cell-based. As to conditions: PC-3 cells, 60 min compound incubation, MSD ELISA, read-out: IC50 pAkt_S473. An outline of the steps:
(§1)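 Compound treatment of PC-3 cells lasted 60 min at 37° C (0.3% DMSO). Lysates were then applied to plates carrying capture antibodies for the relevant phospho-site, and bound Akt was detected with an electrochemiluminescent anti-total Akt antibody; IC50s derive from five-point curves.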
(In general: An ELISA detects its analyte on a solid surface through an enzyme-linked reagent.)

Test [2] concerns Akt phosphorylated at Thr308 in PC-3 cells. In words: Cellular assay: phosphorylation of Akt at Thr308 in PC-3 cells (MSD ELISA). The test is classed as cell-based. As to conditions: PC-3 cells, 60 min compound incubation, MSD ELISA, read-out: IC50 pAkt_Thr308. The method, boiled down:
as §1

The target in test [3] is T1, kinase enzymes (Homo sapiens, UniProt P48736).
T1 construct: purchased DiscoveRx Corporation, San Diego (contract service, KINOMEscan)
T1 sequence (P48736 whole entry): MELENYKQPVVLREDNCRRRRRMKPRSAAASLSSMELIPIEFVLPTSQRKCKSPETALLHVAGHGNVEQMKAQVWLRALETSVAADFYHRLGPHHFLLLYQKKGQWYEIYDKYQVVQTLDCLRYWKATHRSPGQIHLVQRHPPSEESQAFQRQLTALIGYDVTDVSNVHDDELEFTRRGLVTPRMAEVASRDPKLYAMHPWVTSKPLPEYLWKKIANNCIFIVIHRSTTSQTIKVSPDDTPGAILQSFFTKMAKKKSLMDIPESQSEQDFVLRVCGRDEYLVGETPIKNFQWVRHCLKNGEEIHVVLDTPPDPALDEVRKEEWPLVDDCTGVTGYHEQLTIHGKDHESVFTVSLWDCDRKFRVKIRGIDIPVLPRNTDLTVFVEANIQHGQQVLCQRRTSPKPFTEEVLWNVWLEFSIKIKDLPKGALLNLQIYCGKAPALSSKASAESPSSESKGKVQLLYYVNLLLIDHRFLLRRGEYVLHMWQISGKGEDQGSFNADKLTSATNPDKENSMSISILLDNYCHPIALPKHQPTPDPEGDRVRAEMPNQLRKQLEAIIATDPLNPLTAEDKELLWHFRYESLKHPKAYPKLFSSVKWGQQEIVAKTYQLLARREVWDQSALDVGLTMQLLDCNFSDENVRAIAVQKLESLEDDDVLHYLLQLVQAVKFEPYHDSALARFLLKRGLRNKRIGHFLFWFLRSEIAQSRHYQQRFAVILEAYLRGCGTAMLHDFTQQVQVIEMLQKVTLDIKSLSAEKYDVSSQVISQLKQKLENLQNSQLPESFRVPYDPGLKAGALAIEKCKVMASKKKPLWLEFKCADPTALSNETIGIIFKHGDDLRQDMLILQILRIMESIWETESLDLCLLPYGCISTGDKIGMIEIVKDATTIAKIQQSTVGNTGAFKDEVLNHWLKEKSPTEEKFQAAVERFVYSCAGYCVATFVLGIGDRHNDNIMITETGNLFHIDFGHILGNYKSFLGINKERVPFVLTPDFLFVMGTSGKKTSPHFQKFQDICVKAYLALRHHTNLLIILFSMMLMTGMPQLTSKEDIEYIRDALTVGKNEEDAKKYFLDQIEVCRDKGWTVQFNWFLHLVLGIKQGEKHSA
In words: Enzyme binding assay (KINOMEscan, DiscoveRx), further kinases of Table A. The settings on record: PIK3Cγ_h. An outline of the steps:
(§2)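 Kinase binding measured via KINOMEscan, reported as affinity.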

Test [4] addresses T2, kinase enzymes (Homo sapiens, UniProt P42345).
T2 construct: purchased DiscoveRx Corporation, San Diego (contract service, KINOMEscan)
Described as above. The settings on record: MTOR_h. An outline of the steps:
as §2

Test [5] has as its target T3, kinase enzymes (Homo sapiens, UniProt P42336).
T3 construct: purchased DiscoveRx Corporation, San Diego (contract service, KINOMEscan)
The test is described as above. The settings on record: PIK3Cα_h. An outline of the steps: as §2

A further test addresses T4, PI3Kδ (Homo sapiens, UniProt O00329).
T4 construct: purchased DiscoveRx Corporation, San Diego (contract service, KINOMEscan)
T4 sequence (O00329 1-1044): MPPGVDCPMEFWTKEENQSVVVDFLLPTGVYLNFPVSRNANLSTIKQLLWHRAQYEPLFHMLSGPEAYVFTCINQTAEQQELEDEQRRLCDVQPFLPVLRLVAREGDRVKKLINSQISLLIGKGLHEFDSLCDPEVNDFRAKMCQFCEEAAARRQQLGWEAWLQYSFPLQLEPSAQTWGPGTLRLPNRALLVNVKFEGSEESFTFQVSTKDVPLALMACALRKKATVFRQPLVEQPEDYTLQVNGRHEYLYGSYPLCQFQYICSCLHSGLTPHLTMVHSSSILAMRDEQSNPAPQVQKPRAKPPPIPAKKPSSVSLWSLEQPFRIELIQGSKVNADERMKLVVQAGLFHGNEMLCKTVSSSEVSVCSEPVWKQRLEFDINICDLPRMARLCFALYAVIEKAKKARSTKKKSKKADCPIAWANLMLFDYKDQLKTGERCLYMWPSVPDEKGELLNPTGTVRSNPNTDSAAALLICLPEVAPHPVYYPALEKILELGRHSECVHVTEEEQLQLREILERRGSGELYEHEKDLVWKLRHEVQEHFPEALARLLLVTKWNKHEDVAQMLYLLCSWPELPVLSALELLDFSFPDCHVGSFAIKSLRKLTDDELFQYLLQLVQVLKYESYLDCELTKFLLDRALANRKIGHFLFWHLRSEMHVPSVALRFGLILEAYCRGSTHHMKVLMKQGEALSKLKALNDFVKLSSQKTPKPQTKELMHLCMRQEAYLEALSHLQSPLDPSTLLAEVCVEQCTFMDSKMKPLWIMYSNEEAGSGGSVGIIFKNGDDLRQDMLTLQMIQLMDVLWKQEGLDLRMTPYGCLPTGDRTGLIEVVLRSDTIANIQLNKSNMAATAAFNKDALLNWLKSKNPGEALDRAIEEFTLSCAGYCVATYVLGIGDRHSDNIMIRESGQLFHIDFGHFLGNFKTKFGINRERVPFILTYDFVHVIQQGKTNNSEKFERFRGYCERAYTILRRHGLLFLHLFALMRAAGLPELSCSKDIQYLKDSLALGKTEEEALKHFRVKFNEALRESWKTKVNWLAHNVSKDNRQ
In words: Enzyme binding assay (KINOMEscan, DiscoveRx). The settings on record: PIK3Cδ_h. An outline of the steps: as §2

The target in another test is T5, PI3Kβ (Homo sapiens, UniProt P42338).
T5 construct: purchased DiscoveRx Corporation, San Diego (contract service, KINOMEscan)
T5 sequence (P42338 whole entry): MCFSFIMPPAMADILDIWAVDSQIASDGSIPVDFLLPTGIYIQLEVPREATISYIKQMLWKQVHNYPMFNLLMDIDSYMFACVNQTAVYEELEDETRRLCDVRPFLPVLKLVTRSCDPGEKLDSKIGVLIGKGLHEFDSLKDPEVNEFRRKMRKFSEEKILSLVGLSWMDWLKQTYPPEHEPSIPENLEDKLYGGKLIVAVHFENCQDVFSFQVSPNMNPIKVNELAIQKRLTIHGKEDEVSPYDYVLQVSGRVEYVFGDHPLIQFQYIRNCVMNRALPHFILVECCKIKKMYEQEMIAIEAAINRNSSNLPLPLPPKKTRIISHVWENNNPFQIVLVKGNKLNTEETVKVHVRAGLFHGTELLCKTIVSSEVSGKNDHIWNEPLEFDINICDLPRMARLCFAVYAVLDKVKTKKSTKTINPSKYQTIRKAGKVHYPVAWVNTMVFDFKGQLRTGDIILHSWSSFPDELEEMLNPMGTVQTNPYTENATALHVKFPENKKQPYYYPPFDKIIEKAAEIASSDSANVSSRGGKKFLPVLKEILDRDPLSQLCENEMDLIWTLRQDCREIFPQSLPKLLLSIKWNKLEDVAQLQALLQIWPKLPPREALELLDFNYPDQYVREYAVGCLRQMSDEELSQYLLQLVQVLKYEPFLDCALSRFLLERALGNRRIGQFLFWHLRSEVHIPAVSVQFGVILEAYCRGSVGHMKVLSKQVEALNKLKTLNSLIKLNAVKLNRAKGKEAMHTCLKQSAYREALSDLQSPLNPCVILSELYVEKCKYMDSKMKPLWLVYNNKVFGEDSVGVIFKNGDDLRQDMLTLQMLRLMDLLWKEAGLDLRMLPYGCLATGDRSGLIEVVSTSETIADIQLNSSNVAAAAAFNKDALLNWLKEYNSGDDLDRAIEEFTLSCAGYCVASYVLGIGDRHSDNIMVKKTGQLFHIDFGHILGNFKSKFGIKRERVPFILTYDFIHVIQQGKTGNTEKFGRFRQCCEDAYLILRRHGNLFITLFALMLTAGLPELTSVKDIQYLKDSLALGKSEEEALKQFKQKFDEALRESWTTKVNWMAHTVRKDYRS
Briefly: Enzyme binding assay (KINOMEscan, DiscoveRx). The settings on record: PIK3Cβ_h, read-out: Kd PIK3Cβ_h. The method, boiled down: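 Reported Kd (nM) reflects inhibitor binding to the kinase, as measured by KINOMEscan technology.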

T3 sequence (P42336 whole entry): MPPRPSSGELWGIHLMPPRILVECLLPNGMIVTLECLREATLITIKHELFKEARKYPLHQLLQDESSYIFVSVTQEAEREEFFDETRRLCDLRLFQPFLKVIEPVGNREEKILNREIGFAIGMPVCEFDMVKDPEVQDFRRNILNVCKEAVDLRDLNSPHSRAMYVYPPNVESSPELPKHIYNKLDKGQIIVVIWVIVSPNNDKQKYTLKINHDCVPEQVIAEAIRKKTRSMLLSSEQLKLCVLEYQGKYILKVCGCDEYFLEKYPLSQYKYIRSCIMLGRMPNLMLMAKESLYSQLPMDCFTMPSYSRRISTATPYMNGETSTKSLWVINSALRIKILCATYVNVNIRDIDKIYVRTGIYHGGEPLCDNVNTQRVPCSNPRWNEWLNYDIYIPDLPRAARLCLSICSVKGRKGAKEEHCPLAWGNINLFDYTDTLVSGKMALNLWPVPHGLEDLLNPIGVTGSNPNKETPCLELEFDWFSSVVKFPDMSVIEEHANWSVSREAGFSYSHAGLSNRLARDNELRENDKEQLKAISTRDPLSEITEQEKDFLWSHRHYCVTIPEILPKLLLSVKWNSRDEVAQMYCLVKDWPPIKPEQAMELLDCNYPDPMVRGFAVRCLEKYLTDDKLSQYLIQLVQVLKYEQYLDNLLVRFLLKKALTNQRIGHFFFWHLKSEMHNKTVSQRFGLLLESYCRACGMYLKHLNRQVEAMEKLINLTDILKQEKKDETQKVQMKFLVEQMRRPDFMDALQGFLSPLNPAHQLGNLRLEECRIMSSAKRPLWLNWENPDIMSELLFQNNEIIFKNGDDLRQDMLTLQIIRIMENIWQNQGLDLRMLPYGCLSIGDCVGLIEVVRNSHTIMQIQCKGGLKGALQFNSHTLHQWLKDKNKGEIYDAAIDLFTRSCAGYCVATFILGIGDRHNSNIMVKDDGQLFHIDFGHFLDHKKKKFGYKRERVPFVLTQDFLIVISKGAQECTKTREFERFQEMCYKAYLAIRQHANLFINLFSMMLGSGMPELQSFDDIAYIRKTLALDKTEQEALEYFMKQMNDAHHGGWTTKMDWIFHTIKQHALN

In general, IC50 refers to the midpoint of a concentration-inhibition curve. In general, Kd refers to the equilibrium constant for the complex coming apart. Consider `CC(Oc1cccc(F)c1)c1cc(C(=O)O)cc2ncc(N3CCOCC3)nc12` (single isomer, unassigned) [Compound 257b], for which the IC50 was over 0.513 µM in test [1] (Homo sapiens, PC-3, 1 h) and over 0.513 µM in test [2] (Homo sapiens, PC-3, 1 h). Besides, the Kd on kinase enzymes [3] was found to be 3.09 µM; on kinase enzymes [4], 2.82 µM; at kinase enzymes [5] it was 0.851 µM; at PI3Kδ, 0.468 µM; on PI3Kβ, 0.022 µM.
On to `Cc1c(CNc2cc(C(=O)NCCO)cc3ncc(N4CCOCC4)nc23)cccc1C(F)(F)F` [Compound 231], for which the IC50 is about 0.457 µM in test [1] (Homo sapiens, PC-3, 1 h) and 0.398 µM in test [2] (Homo sapiens, PC-3, 1 h). Also, the Kd on kinase enzymes [3] was over 30.2 µM; at kinase enzymes [4] it was over 10 µM; at kinase enzymes [5], 17 µM; at PI3Kδ, over 3.31 µM; at PI3Kβ, 0.052 µM.
Take `CC(Nc1cc(F)cc(F)c1)c1cc(C(=O)N2CCOCC2)cc2ncc(N3CCOCC3)nc12` (single isomer, unassigned) [Compound 9]: the IC50 in test [1] and in test [2] was over 0.513 µM in each case. Moreover, the Kd on kinase enzymes [3] is over 30.2 µM; on kinase enzymes [4], over 30.2 µM; at kinase enzymes [5] it was 27.5 µM; at PI3Kδ, 18.2 µM; on PI3Kβ it was 0.417 µM.
`CC(Nc1cc(F)cc(F)c1)c1cc(CO)cc2ncc(N3CCOCC3)nc12` (single isomer, unassigned) [Compound 154a]: the IC50 is 0.03 µM in test [1] and 0.023 µM in test [2]. Moreover, the Kd on kinase enzymes [3] amounted to 0.741 µM; at kinase enzymes [4], 8.51 µM; at kinase enzymes [5] it was 0.437 µM; at PI3Kδ, 0.098 µM; on PI3Kβ, 0.001 µM.
Consider `CN(C(=O)c1cc(NCc2cc(F)cc(F)c2)c2nc(N3CCOCC3)cnc2c1)[C@H]1CCNC1` [Compound 368], for which the half-maximal inhibitory concentration (IC50) in test [1] (Homo sapiens, PC-3, 1 h) is 0.12 µM; in test [2] (Homo sapiens, PC-3, 1 h) it was about 0.023 µM. The Kd on kinase enzymes [3] is over 30.2 µM; on kinase enzymes [4] it was over 30.2 µM; on kinase enzymes [5], 5.37 µM; at PI3Kδ it was 1.41 µM; at PI3Kβ it was 0.007 µM.
With `CC(Oc1ccc(F)c(F)c1)c1cc(C(=O)NCCN(C)C)cc2ncc(N3CCOCC3)nc12` (single isomer, unassigned) [Compound 299a], the IC50 in test [1] was about 0.045 µM; in test [2] it was 0.056 µM. Moreover, the Kd on kinase enzymes [3] was 11 µM; at kinase enzymes [4], over 30.2 µM; on kinase enzymes [5], 6.31 µM; at PI3Kδ it was 0.269 µM; at PI3Kβ it was 0.001 µM.
As to `Cc1c(F)cccc1CNc1cc(C(=O)N(C)CCNC(C)C)cc2ncc(N3CCOCC3)nc12` [Compound 385], the 50% inhibitory concentration (IC50) in test [1] (Homo sapiens, PC-3, 1 h) amounted to 0.032 µM; in test [2] (Homo sapiens, PC-3, 1 h), 0.02 µM. In addition, the Kd on kinase enzymes [3] is 6.17 µM; at kinase enzymes [4] it was 16.6 µM; on kinase enzymes [5], 0.933 µM; at PI3Kδ, 0.347 µM; on PI3Kβ it was 0.001 µM.
`CC(Oc1cccc(F)c1)c1cc(CO)cc2ncc(N3CCOCC3)nc12` (single isomer, unassigned) [Compound 88]: the concentration for half-maximal inhibition (IC50) in test [1] was 0.178 µM; in test [2], 0.089 µM. Moreover, the Kd on kinase enzymes [3] was 4.68 µM; on kinase enzymes [4] it was 14.1 µM; at kinase enzymes [5], 2.14 µM; at PI3Kδ, 0.603 µM; at PI3Kβ it was 0.005 µM.
As to `CC(Nc1cc(F)cc(F)c1)c1cc(C(=O)N2CCOCC2)cc2ncc(N3CCOCC3)nc12` (stereo not drawn) [Compound 7], the IC50 in test [1] worked out at 0.042 µM; in test [2], 0.021 µM. In addition, the Kd at kinase enzymes [3] is 10 µM; on kinase enzymes [4], over 30.2 µM; on kinase enzymes [5] it was 0.513 µM; on PI3Kδ it was 0.245 µM; at PI3Kβ, 0.002 µM.
Turning to `CC(Oc1cc(F)cc(F)c1)c1cc(C(=O)N(C)CCO)cc2ncc(N3CCOCC3)nc12` (single isomer, unassigned) [Compound 61], the values for the IC50 in test [1] and in test [2] were 0.182 µM and 0.123 µM, respectively. Moreover, the Kd was 5.25 µM at kinase enzymes [3]; over 30.2 µM on kinase enzymes [4]; 0.676 µM on kinase enzymes [5]; 0.209 µM at PI3Kδ; 0.002 µM at PI3Kβ.
As to `CC(Nc1cc(F)cc(F)c1)c1cc(C(=O)N2CC3(C2)CS(=O)(=O)C3)cc2ncc(N3CCOCC3)nc12` (stereo not drawn) [Compound 148], the IC50 in test [1] (Homo sapiens, PC-3, 1 h) was 0.068 µM; in test [2] (Homo sapiens, PC-3, 1 h) it was 0.03 µM. The Kd on kinase enzymes [3] is 8.13 µM; at kinase enzymes [4], over 30.2 µM; at kinase enzymes [5], 1.07 µM; at PI3Kδ, 0.316 µM; at PI3Kβ, 0.001 µM.
Turning to `CC(Nc1ccc(F)c(F)c1)c1cc(C(=O)NCCN(C)C)cc2ncc(N3CCOCC3)nc12` (stereo not drawn) [Compound 299b], the IC50 in test [1] and in test [2] was over 0.513 µM in each case. The Kd is 19.5 µM at kinase enzymes [3]; over 30.2 µM at kinase enzymes [4]; 13.2 µM on kinase enzymes [5]; 5.25 µM at PI3Kδ; 0.06 µM at PI3Kβ.
In the case of `CC(Nc1cc(F)cc(F)c1)c1cc(C(=O)NS(=O)(=O)C2CC2)cc2ncc(N3CCOCC3)nc12` (single isomer, unassigned) [Compound 220], the IC50 in test [1] and in test [2] was over 0.513 µM in each case. Also, the Kd was 25.7 µM on kinase enzymes [3]; 6.46 µM on kinase enzymes [4]; 25.7 µM on kinase enzymes [5]; over 30.2 µM on PI3Kδ; 2.75 µM on PI3Kβ.
Turning to `CN(C)CCNC(=O)c1cc(NCc2cc(F)cc(F)c2)c2nc(N3CCOCC3)cnc2c1` [Compound 384], the IC50 turned out to be 0.02 µM in test [1] (Homo sapiens, PC-3, 1 h) and 0.007 µM in test [2] (Homo sapiens, PC-3, 1 h). In addition, the Kd on kinase enzymes [3] is 15.8 µM; at kinase enzymes [4] it was 20 µM; on kinase enzymes [5], 2.69 µM; on PI3Kδ, 0.575 µM; at PI3Kβ it was 0.001 µM.
As to `CC(Nc1ccc(F)c(F)c1)c1cc(C(=O)N(C)CCN(C)C)cc2ncc(N3CCOCC3)nc12` (single isomer, unassigned) [Compound 349b], the IC50 came out at 0.479 µM in test [1] and 0.302 µM in test [2]. Further, the Kd is 25.7 µM at kinase enzymes [3]; over 30.2 µM on kinase enzymes [4]; 4.68 µM at kinase enzymes [5]; 2.75 µM at PI3Kδ; 0.014 µM at PI3Kβ.
For `CC(Oc1cc(F)cc(F)c1)c1cc(C(=O)N(C)C)cc2ncc(N3CCOCC3)nc12` (single isomer, unassigned) [Compound 5], the IC50 in test [1] turned out to be 0.1 µM; in test [2] it was 0.099 µM. The Kd amounted to 7.98 µM at kinase enzymes [3]; 25.1 µM at kinase enzymes [4]; 1.59 µM at kinase enzymes [5]; 0.225 µM at PI3Kδ; 0.002 µM at PI3Kβ.
In the case of `COC(=O)[C@@H]1CCCN1C(=O)c1cc(C(C)Nc2cc(F)cc(F)c2)c2nc(N3CCOCC3)cnc2c1` (stereo partly drawn) [Compound 273], the IC50 was 0.447 µM in test [1] (Homo sapiens, PC-3, 1 h) and about 0.257 µM in test [2] (Homo sapiens, PC-3, 1 h). For the same molecule, the Kd was over 10 µM at kinase enzymes [3]; over 30.2 µM at kinase enzymes [4]; 6.31 µM at kinase enzymes [5]; 2.75 µM at PI3Kδ; 0.008 µM at PI3Kβ.
With `CC(C)NCCNC(=O)c1cc(C(C)Oc2ccc(F)c(F)c2)c2nc(N3CCOCC3)cnc2c1` (single isomer, unassigned) [Compound 286a], the half-inhibitory concentration (IC50) in test [1] and in test [2] was over 0.513 µM throughout. For the same molecule, the Kd at kinase enzymes [3] was over 30.2 µM; on kinase enzymes [4], 25.7 µM; at kinase enzymes [5], 10.2 µM; on PI3Kδ, 5.75 µM; on PI3Kβ, 0.182 µM.
